Tests used:
Aβtotal [1] = assay: Screening for γ-secretase-modulating activity, Method 1: Aβtotal sandwich ELISA in supernatant of SKNBE2 cells carrying APP 695 wild type (Tables 12a, 12b); format: cell-based
Outline: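 SKNBE2 cells expressing wild-type APP 695 were plated a day ahead, then exposed to compound in Ultraculture with 1% glutamine for 18 hours. Supernatant Aβtotal captured on 6E10 overnight at 4° C, detected with biotinylated 4G8 and streptavidin-peroxidase with a fluorogenic substrate. IC50 from 4-parameter dose-response fits.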

Aβ42 [2] = assay: Screening for γ-secretase-modulating activity, Method 1: Aβ42 sandwich ELISA in supernatant of SKNBE2 cells carrying APP 695 wild type (Tables 12a, 12b); format: cell-based
Outline: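 SKNBE2 cells expressing wild-type APP695 were treated with compound for 18 h, and secreted Aβ42 in the medium was quantified by sandwich ELISA (C-terminal-selective capture, biotinylated 3D6 detection, TMB read at 450 nm). IC50 came from 4-parameter fits of % inhibition or % of untreated control; toxicity was checked by WST-1.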

Aβ42 [3] = assay: Demonstration of in vivo efficacy: Aβ42 lowering in brain after single oral dose (Table 13); conditions: mouse brain soluble fraction, ELISA, mean, compared to untreated animals
Text: (§1) To determine whether acute administration of an Aβ42 lowering agent would reduce Aβ42 levels in vivo, non-transgenic rodents, e.g. mice or rats were used. Alternatively, two to three month old Tg2576 mice expressing APP695 containing the “Swedish” variant can be used or a transgenic mouse model developed by Dr. Fred Van Leuven (K. U. Leuven, Belgium) and co-workers, with neuron-specific expression of a clinical mutant of the human amyloid precursor protein [V717I] (Moechars et al., 1999 J. Biol. Chem. 274, 6483). Young transgenic mice have high levels of Aβ in the brain but no detectable Aβ deposition. At approximately 6-8 months of age, the transgenic mice start to display spontaneous, progressive accumulation of β-amyloid (Aβ) in the brain, eventually resulting in amyloid plaques within the subiculum, hippocampus and cortex. Animals treated with the Aβ42 lowering agent were examined and compared to those untreated or treated with vehicle and brain levels of soluble Aβ42 and total Aβ would be quantitated by standard techniques, for example, using ELISA. Treatment periods varied from hours to days and were adjusted based on the results of the Aβ42 lowering once a time course of onset of effect could be established.
(§2) A typical protocol for measuring Aβ42 lowering in vivo is shown but it is only one of many variations that could be used to optimize the levels of detectable Aβ. For example, Aβ42 lowering compounds were formulated in 20% of Captisol® (a sulfobutyl ether of β-cyclodextrin) in water or 20% hydroxypropyl β cyclodextrin. The Aβ42 lowering agents were administered as a single oral dose or by any acceptable route of administration to overnight fasted animals. After four hours, the animals were sacrificed and Aβ42 levels were analysed.
(§3) Blood was collected by decapitation and exsanguinations in EDTA-treated collection tubes. Blood was centrifuged at 1900 g for 10 minutes at 4° C. and the plasma recovered and flash frozen for later analysis. The brain was removed from the cranium and hindbrain. The cerebellum was removed and the left and right hemisphere were separated. The left hemisphere was stored at −18° C. for quantitative analysis of test compound levels. The right hemisphere was rinsed with phosphate-buffered saline (PBS) buffer and immediately frozen on dry ice and stored at −80° C. until homogenization for biochemical assays.
(§4) Mouse brains were resuspended in 10 volumes of 0.4% DEA (diethylamine)/50 mM NaCl pH 10 (for non-transgenic animals) or 0.1% 3-[3-cholamidopropyl)-dimethyl-ammonio]-1-propanesulfonate (CHAPS) in tris buffered saline (TBS) (for transgenic animals) containing protease inhibitors (Roche-11873580001 or 04693159001) per gram of tissue, e.g. for 0.158 g brain, add 1.58 ml of 0.4% DEA. All samples were sonicated for 30 seconds on ice at 20% power output (pulse mode). Homogenates were centrifuged at 221.300×g for 50 min. The resulting high speed supernatants were then transferred to fresh tubes and were optionally further purified before the next step. A portion of the supernatant was neutralized with 10% 0.5 M Tris-HCl and this was used to quantify Aβtotal.
The obtained supernatants were purified with Water Oasis HLB reverse phase columns (Waters Corp., Milford, Mass.) to remove non-specific immunoreactive material from the brain lysates prior subsequent Aβ detection. Using a vacuum manifold, all solutions were passed through the columns at a rate of approximately 1 ml per minute, so the vacuum pressure was adjusted accordingly throughout the procedure. Columns were preconditioned with 1 ml of 100% MeOH, before equilibration with 1 ml of H2O. Non-neutralized brain lysates were loaded onto the columns. The loaded samples were then washed twice with the first wash performed with 1 ml of 5% MeOH, and the second wash with 1 ml of 30% MeOH. Finally, the Aβ was eluted from the columns and into 100×30 mm glass tubes, with a solution of 90% MeOH with 2% NH4OH. […]

Aβtotal [4] = assay: Demonstration of in vivo efficacy: Aβtotal lowering in brain after single oral dose (Table 13); conditions: mouse brain soluble fraction, mean, compared to untreated animals
Text: as §1, §2, §3
as §4, with “Aβtotal. […]” for “Aβtotal.”
In this model at least 20% Aβ42 lowering compared to untreated animals would be advantageous.

Aβtotal [5] = assay: Screening for γ-secretase-modulating activity, Method 2: Aβtotal Alphalisa in supernatant of SKNBE2 cells carrying APP 695 wild type (Table 12c); format: cell-based; conditions: Homo sapiens, Method 2, Table 12c, incubated overnight
Outline: (§5)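 SKNBE2 cells expressing wild-type APP695, 10^4 cells/well, exposed to compound overnight at 37 °C; secreted Aβ42 and Aβtotal in supernatant measured by AlphaLISA sandwich immunoassays (Aβ42: C-terminal/N-terminal antibodies; Aβtotal: N-terminal/4G8). IC50 from 4-parameter fit of % untreated control.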

Aβ42 [6] = assay: Screening for γ-secretase-modulating activity, Method 2: Aβ42 Alphalisa in supernatant of SKNBE2 cells carrying APP 695 wild type (Table 12c); format: cell-based; conditions: Homo sapiens, Method 2, Table 12c, incubated overnight
Outline: as §5

[7] = Homo sapiens, Method 1, Table 12a, SKNBE2 cells carrying APP 695 wild type, compounds 18 hours, ELISA, curve top and bottom fixed to 100 and 0, hill slope 1
[8] = Homo sapiens, Table 12b, Method 1, SKNBE2 cells carrying APP 695 wild type, cell supernatant ELISA, averaged IC50 values
[9] = Homo sapiens, Table 12b, Method 1, SKNBE2 cells carrying APP 695 wild type, cell supernatant ELISA, averaged IC50 values, percentage of control vs log concentration
[10] = Method 1, Table 12a, SKNBE2 cells carrying APP 695 wild type, compounds 18 hours, ELISA, curve top and bottom fixed to 100 and 0, hill slope 1
[11] = Table 12b, Method 1, SKNBE2 cells carrying APP 695 wild type, cell supernatant ELISA, averaged IC50 values
[12] = Table 12b, Method 1, SKNBE2 cells carrying APP 695 wild type, cell supernatant ELISA, averaged IC50 values, percentage of control vs log concentration

SMILES	IC50 (Aβtotal [1]; [7]) [µM]	IC50 (Aβtotal [1]; [8]) [µM]	IC50 (Aβ42 [2]; [7]) [nM]	IC50 (Aβ42 [2]; [9]) [nM]	Aβ42 (% Ctrl)_Mean (Aβ42 [3]) [% Ctrl]	Aβtotal (% Ctrl)_Mean (Aβtotal [4]) [% Ctrl]	IC50 (Aβtotal [1]; [10]) [µM]	IC50 (Aβtotal [1]; [11]) [µM]	IC50 (Aβ42 [2]; [10]) [nM]	IC50 (Aβ42 [2]; [12]) [nM]	melting point [°C]	IC50 (Aβtotal [5]) [µM]	IC50 (Aβ42 [6]) [nM]
COc1ccccc1-c1cn2cccc(Nc3ccc(-n4cnc(C)c4)c(OC)c3)c2n1 [Compound 32]	> 5	> 5.01	114	105	81	113							
COc1cc(Nc2cccn3c(C)c(-c4ccccc4F)nc23)ccc1-n1cnc(C)c1 [Compound 18]	> 10	> 10	25	25	73	101							
CCCc1nc2c(Nc3ccc(-n4cnc(C)c4)c(OC)c3)cccn2c1CC [Compound 10]					67	104	> 3	> 3.02	54	51			
COc1cccc(-c2nc3c(Nc4ccc(-n5cncn5)c(OC)c4)cccn3c2C)c1 [Compound 7]	> 1	> 3.02	37	36	68	105							
Cc1ncn(-c2ccc(Nc3cccn4c(C)c(-c5ccccc5Cl)nc34)cn2)n1 [Compound 87]					86	101		> 10		25			
CCc1cn(-c2ccc(Nc3cccn4c(C)c(-c5cccc(OC)c5)nc34)cc2OC)cn1 [Compound 63]	> 3	> 3.02	29	29							159.9		
Cc1ncn(-c2ccc(Nc3cccn4c(C)c(C)nc34)cc2)n1 [Compound 79]		> 10		7410							230.6		
COc1cccc(-c2nc3c(Nc4ccc(-n5cnc(C)c5)c(OC)c4)cccn3c2C)c1 [Compound 34]	> 3	> 3.02	9	9	63	100							
COc1cc(Nc2cccn3cc(-c4ccccc4C)nc23)ccc1-n1cnc(C)n1 [Compound 70]					84	99						> 3.02	68
COc1ccc(C)c(-c2cn3cccc(Nc4ccc(-n5cnc(C)n5)c(F)c4)c3n2)c1 [Compound 94]		> 3.02		115	96	101							
Cc1ccc(C(F)(F)F)cc1-c1cn2cccc(Nc3ccc(-n4ncnc4C)c(F)c3)c2n1 [Compound 130]		> 3.02		178							210		
Cc1cn2cccc(Nc3ccc(-n4cnc(C)n4)cc3)c2n1 [Compound 78]	> 10	> 10	6440	9550							213.1		
Cc1ncn(-c2ccc(Nc3cccn4cc(-c5ccc(F)cc5C)nc34)cn2)n1 [Compound 98]					84	97		> 3.02		32			
Cc1ncn(-c2ccc(Nc3cccn4cc(-c5ccccc5C)nc34)cn2)n1 [Compound 86]					86	96		> 10		117			
COc1cc(Nc2cccn3cc(Cc4ccc(F)cc4)nc23)ccc1-n1cnc(C)c1 [Compound 3]	> 1	12.6	30	148	56	95							
Cc1ncn(-c2ccc(Nc3cccn4c(C)c(-c5ccccc5Cl)nc34)nc2)n1 [Compound 83]					89	104		> 10		355			
COc1cc(Nc2cccn3cc(-c4ccc(F)cc4C)nc23)ccc1-n1cnc(C)c1 [Compound 52]	> 3	> 3.02	10	10	66	91							
COc1cc(Nc2cccn3c(-c4ccc(F)cc4)cnc23)ccc1-n1cnc(C)c1 [Compound 8]	> 20	> 20	541	562	88	96							
COc1cc(Nc2cccn3cc(-c4ccc(N5CCOCC5)cc4)nc23)ccc1-n1cnc(C)c1 [Compound 40]	> 3	> 3.02	62	56	80	99							
COc1cc(Nc2cccn3c(C)c(-c4ccc(F)cc4F)nc23)ccc1-n1cnc(C)c1 [Compound 26]	> 3	> 3.02	11	11	75	94							
CCN(CC)c1ccc(-c2cn3cccc(Nc4ccc(-n5cnc(C)c5)c(OC)c4)c3n2)cc1 [Compound 39]	> 3	> 3.02	75	68	82	108							
Cc1ncn(-c2ccc(Nc3cccn4cc(-c5cc(C(F)(F)F)ccc5C)nc34)cc2F)n1 [Compound 74]		> 3.02		123	95	102							
